Assay results published in patent publication US6403639B1, “2,3-dihydrobenzofuran derivatives” (Chugai Seiyaku Kabushiki Kaisha, priority 1997, dated 2002).
Like-named read-outs stand apart in the source and are kept apart here.

What was measured:
[1] = tested on: porcine kidney-derived LLC-PK1 cells; assay: Protective effect against cell injury of porcine kidney-derived LLC-PK1 cells (2), oxidized LDL-induced LDH leakage; format: cell-based
Protocol: (§1) The oxidized LDL was prepared by placing 1 mg/ml of rabbit LDL in PBS (−) in the presence of 10 μM CuSO4 at 37° C. for 24 hours. Cell cultures were prepared by inoculating 1.25×10^4 cells/250 μl/well on a 48-well plate using M199 medium containing 3% FBS. Test compounds were dissolved or suspended in ethanol and added at a ratio of 1.25 μl/well 16 hours before or immediately before addition of the oxidized LDL to a concentration of 0.1, 1 or 10 μM in each well. The oxidized LDL was diluted twice with physiological saline and then added to cells at 62.5 μl/well to a concentration of 100 μg/ml and the cells were incubated for 6 hours after addition of the oxidized LDL. After the incubation, 162.5 μl of the culture medium was collected from each of the wells and measured for the lactate dehydrogenase (LDH) activity (Lactate Dehydrogenase (LD-L): SIGNA DIAGNOSTICS) which has leaked into the culture medium.
(§2) The cytoprotective effect was expressed as a % cytoprotection where the effect in wells containing the oxidized LDL but without any test compound is 0% and the effect in wells containing physiological saline in place of the oxidized LDL is 100%.
For the purpose of evaluating in vitro cytoprotective effect of the compounds of the present invention, protective effect against cell injury of porcine kidney-derived LLC-PK1 cells (ATCC-CRL-13921) induced by oxidized low-density lipoprotein (oxidized LDL) was examined in the same manner as in Test example 1.
Preparation of oxidized LDL and conditions for cell culture and addition of test compounds were the same as those in Test example 1, except that the oxidized LDL was not diluted with physiological saline and added to cells at 25 μl/well to a concentration of 91 μg/ml and the cells were incubated for 6 hours after addition of oxidized LDL. After the incubation, 150 μl of the culture medium was collected from each of the wells and measured for the lactate dehydrogenase (LDH) activity (Lactate Dehydrogenase (LD-L): SIGMA DIAGNOSTICS) which has leaked in the culture medium.

[2] = tested on: cultured mesangial cells; assay: Protective effect against cell injury of cultured mesangial cells, oxidized LDL-induced LDH leakage; format: cell-based, rats
Protocol: For the purpose of evaluating in vitro cytoprotective effect of the compounds of the present invention, protective effect against cell injury of cultured mesangial cells induced by oxidized low-density lipoprotein (LDL) was examined. The cells used were subcultures after 4 to 6 passages of the primary cultures of mesangial cells prepared from kidney of 4-week-old SD-strain male rats (Nippon Charles River Corp.).
The oxidized LDL was prepared by placing 1 mg/ml of rabbit LDL in PBS (−) in the presence of 10 μM CuSO4 at 37° C. for 24 hours. Cell cultures were prepared by inoculating 2.5×10^4 cells/250 μl/well on a 48-well plate using RPMI1640 medium containing 20% FBS. Immediately before addition of test compounds, the medium was replaced with RPMI1640 free from FBS. Test compounds were dissolved or suspended in ethanol and added at 1.25 μl/well 16 hours before or immediately before addition of the oxidized LDL to a concentration of 1, 3 or 10 μM in each well. Unlike Test example 1, the oxidized LDL was not diluted with physiological saline and added to cells at 25 μl/well to a concentration of 91 μg/ml and the cells were incubated for 8 hours after addition of the oxidized LDL. After the incubation, 150 μl of the culture medium was collected from each of the wells and measured for the lactate dehydrogenase activity (Lactate Dehydrogenase (LD-L): SIGMA DIAGNOSTICS) which has leaked in the culture medium.
as §2

[3] = tested on: porcine kidney-derived LLC-PK1 cells; assay: Protective effect against cell injury of porcine kidney-derived LLC-PK1 cells (1), oxidized LDL-induced LDH leakage; format: cell-based; settings: oxidized LDL 100 μg/ml, 6 hours; for % cytoprotection 1): test compounds added 16 hours before addition of oxidized LDL; for % cytoprotection 2): test compounds added immediately before addition of oxidized LDL
Protocol: For the purpose of evaluating in vitro cytoprotective effect of the compounds of the present invention, protective effect against cell injury of porcine kidney-derived LLC-PK1 cells (ATCC-CRL-13921) induced by oxidized low-density lipoprotein (oxidized LDL) was examined.
as §1, §2

[4] = Sus scrofa, LLC-PK1; 0.1 μM; test compounds added 16 hours before addition of oxidized LDL; oxidized LDL 91 μg/ml, 6 hours; read-out: % cytoprotection 1)
[5] = Sus scrofa, LLC-PK1; 0.1 μM; test compounds added immediately before addition of oxidized LDL; oxidized LDL 91 μg/ml, 6 hours; read-out: % cytoprotection 2)
[6] = Sus scrofa, LLC-PK1; 1 μM; test compounds added 16 hours before addition of oxidized LDL; oxidized LDL 91 μg/ml, 6 hours; read-out: % cytoprotection 1)
[7] = Sus scrofa, LLC-PK1; 1 μM; test compounds added immediately before addition of oxidized LDL; oxidized LDL 91 μg/ml, 6 hours; read-out: % cytoprotection 2)
[8] = Sus scrofa, LLC-PK1; 10 μM; test compounds added 16 hours before addition of oxidized LDL; oxidized LDL 91 μg/ml, 6 hours; read-out: % cytoprotection 1)
[9] = Sus scrofa, LLC-PK1; 10 μM; test compounds added immediately before addition of oxidized LDL; oxidized LDL 91 μg/ml, 6 hours; read-out: % cytoprotection 2)
[10] = Rattus norvegicus, Mesangial cell; 1 μM; test compounds added 16 hours before addition of oxidized LDL; oxidized LDL 91 μg/ml, 8 hours; read-out: % cytoprotection 1)
[11] = Rattus norvegicus, Mesangial cell; 1 μM; test compounds added immediately before addition of oxidized LDL; oxidized LDL 91 μg/ml, 8 hours; read-out: % cytoprotection 2)
[12] = Rattus norvegicus, Mesangial cell; 3 μM; test compounds added 16 hours before addition of oxidized LDL; oxidized LDL 91 μg/ml, 8 hours; read-out: % cytoprotection 1)
[13] = Rattus norvegicus, Mesangial cell; 3 μM; test compounds added immediately before addition of oxidized LDL; oxidized LDL 91 μg/ml, 8 hours; read-out: % cytoprotection 2)

| Structure (SMILES) | inhibition at 0.1 µM [1, 4] | inhibition at 0.1 µM [1, 5] | inhibition at 1 µM [1, 6] | inhibition at 1 µM [1, 7] | inhibition at 10 µM [1, 8] | inhibition at 10 µM [1, 9] | inhibition at 1 µM [2, 10] | inhibition at 1 µM [2, 11] | inhibition at 3 µM [2, 12] | inhibition at 3 µM [2, 13] | % cytoprotection 1) ([3]; 0.1 μM) | % cytoprotection 2) ([3]; 0.1 μM) | % cytoprotection 1) ([3]; 1 μM) | % cytoprotection 2) ([3]; 1 μM) | % cytoprotection 1) ([3]; 10 μM) | % cytoprotection 2) ([3]; 10 μM) |
| --- | --- | --- | --- | --- | --- | --- | --- | --- | --- | --- | --- | --- | --- | --- | --- | --- |
| CC(C)(C)c1cc2c(cc1O)CC1(CCCCCC1)O2 [Example 7, 6-t-Butyl-5-hydroxy-2,3-dihydrobenzofuran-2-spiro-1′-cycloheptane] | 19.1% | 14.7% | 104% | 104% | 105% | 105% | 19.3 ± 2.8% | 22 ± 1.9% | 18.1 ± 4.1% | 24.5 ± 0.8% | – | – | – | – | – | – |
| CC(C)Cc1c(O)c(C(C)(C)C)cc2c1CC1(CCCCCC1)O2 [Example 11, 6-t-Butyl-5-hydroxy-4-(2-methylpropyl)-2,3-dihydrobenzofuran-2-spiro-1′-cycloheptane] | -2.7% | -20.4% | 53.4% | 88.7% | 102% | 103% | -3.5 ± 9.1% | 4.8 ± 5.1% | 13.8 ± 7.8% | 41.3 ± 1% | – | – | – | – | – | – |
| CCC(C)c1c(O)c(C(C)(C)C)cc2c1CC1(CCCCCC1)O2 (centres unmarked) [Example 13, 6-t-Butyl-5-hydroxy-4-(1-methylpropyl)-2,3-dihydrobenzofuran-2-spiro-1′-cycloheptane] | 5.5% | 3.4% | 13.6% | 9.9% | 100% | 100% | 1.7 ± 2.9% | -4.3 ± 5.1% | 18.4 ± 9.2% | 11.1 ± 4.3% | – | – | – | – | – | – |
| CC1(C)Cc2c(c(C(C)(C)C)cc(O)c2C(C)(C)C)O1 [Example 4, 4,7-Di-t-butyl-5-hydroxy-2,2-dimethyl-2,3-dihydrobenzofuran] | 11.3% | 14.4% | 100% | 99% | 98.3% | 99.8% | 31.1 ± 5.4% | 32.5 ± 1.9% | 66.4 ± 5.9% | 54.3 ± 9.7% | – | – | – | – | – | – |
| CC(C)(C)c1cc(O)c(C(C)(C)C)c2c1OCC2 [Example 1, 4,7-Di-t-butyl-5-hydroxy-2,3-dihydrobenzofuran] | – | – | – | – | – | – | 24.2 ± 9.3% | 40.3 ± 3.2% | 78.2 ± 13.4% | 69.7 ± 13.3% | 92.7% | 17.5% | 104.1% | 103.9% | 100.5% | 102.3% |
| CC1(C)Cc2cc(O)c(C(C)(C)C)cc2O1 [Example 5, 6-t-Butyl-5-hydroxy-2,2-dimethyl-2,3-dihydrobenzofuran] | – | – | – | – | – | – | 34.2 ± 4.5% | 11.3 ± 2.4% | 42.3 ± 4.7% | 28.9 ± 2% | 77.6% | 18.2% | 103.4% | 100.8% | 100.6% | 101.7% |
| CC1Cc2cc(O)c(C(C)(C)C)cc2O1 (centres unmarked) [Example 16, 6-t-Butyl-5-hydroxy-2-methyl-2,3-dihydrobenzofuran] | 12.7% | 7.6% | 99.7% | 90.8% | 103% | 103% | 50.6 ± 5.9% | 18.7 ± 1.3% | 45.3 ± 9.4% | 28.3 ± 6.2% | – | – | – | – | – | – |
| CC1Cc2c(c(C(C)(C)C)cc(O)c2C(C)(C)C)O1 (centres unmarked) [Example 2, 4,7-Di-t-butyl-5-hydroxy-2-methyl-2,3-dihydrobenzofuran] | – | – | – | – | – | – | 35.6 ± 7.5% | 40.6 ± 8.2% | 60.5 ± 6.2% | 53.1 ± 5.7% | 24.4% | 27.1% | 101.2% | 101.5% | 101.0% | 99.9% |
